Patent US8778871B2 (Takeda Pharmaceutical Company Limited, priority 2004, dated 2014)
Non-standard residues stand in square brackets, D forms with d. Residues, ends and D or L forms follow the SMILES beside them. NMeW = CN[C@@H](Cc1c[nH]c2ccccc12)C(=O)O; Arg(Me) = CNC(=N)NCCC[C@H](N)C(=O)O; Nva = CCC[C@H](N)C(=O)O; azaGly = NNC(=O)O

Assays:
[1] = Action of reducing testosterone level in blood in mature male rat (1 mM peptide in 50% DMSO, ALZET osmotic pump); format: in vivo; conditions: 1 mM peptide in 50% DMSO aqueous solution, ALZET osmotic pump s.c., six days
Procedure: The peptide was encapsulated in five ALZET osmotic pump (Model 2001, 0.2 ml of volume, releasing rate 0.001 ml/hr, DURECT Corporation). The ALZET pumps encapsulated with the peptide solution were implanted to dorsal subcutaneous of five male CD (SD) IGS rat at nine weeks age (Charles River Japan, Inc.) anesthesized with ether for one pump to one rat. Separately, for negative controls, the ALZET osmotic pumps encapsulated with distilled water were implanted to five male CD (SD) IGS rat (Charles River Japan, Inc.) The rats were bred for six days under the normal conditions. After weighing, blood was collected by decapitation. To 1 ml of blood, 0.03 ml of aprotinin (Trasylol, Byer) solution containing 0.1 g/ml EDTA 2Na was added. The plasma was isolated by centrifugation at 1,800×g for 25 minutes and collected. The thus obtained plasma, 0.05 ml was effected by radioimmunoassay. (DPC Total Testosterone Kit, Diagnostic Products Corporation) to measure testosterone level in blood of each rat. The value beneath measuring limit of radioimmunoassay (0.04 ng/ml as concentration of plasma) was treated as zero. The mean values for testosterone level of five rats, to which the peptide was given, was calculated and the relative value (percentage) for the mean values of testosterone level of five rats, to which distilled watrer was given, was estimated.

[2] = biological target: T1, hOT7T175 (Homo sapiens, UniProt Q969F8, L364H); format: cell-based; conditions: hOT7T175/CHO, FLIPR, evaluation for 40 seconds after initiation of the reaction
T1 construct: expressed in transfected cells
Procedure: The intracellular Ca ion level-increasing activity was measured using FLIPR as in TEST EXAMPLE 2.

[3] = biological target: T1, hOT7T175; test: Intracellular Ca ion level-increasing activity using FLIPR (180 seconds; specific activity to Metastin (1-54)); format: cell-based; conditions: hOT7T175/CHO, relative to Metastin (1-54) = 1

T1 sequence (Q969F8 whole entry L364H): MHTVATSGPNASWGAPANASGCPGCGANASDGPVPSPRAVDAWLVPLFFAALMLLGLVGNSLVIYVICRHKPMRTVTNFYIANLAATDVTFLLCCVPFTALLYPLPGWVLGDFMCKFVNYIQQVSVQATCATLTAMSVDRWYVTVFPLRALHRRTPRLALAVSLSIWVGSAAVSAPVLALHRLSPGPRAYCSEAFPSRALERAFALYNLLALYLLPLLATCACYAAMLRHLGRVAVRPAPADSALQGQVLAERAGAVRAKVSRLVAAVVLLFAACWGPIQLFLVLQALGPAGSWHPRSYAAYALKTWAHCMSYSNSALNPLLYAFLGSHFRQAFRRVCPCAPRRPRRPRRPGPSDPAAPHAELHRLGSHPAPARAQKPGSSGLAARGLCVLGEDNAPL

3-Pyridinepropionyl-D-Trp-Asn-Thr-Phe-AzaGly-Leu-Arg(Me)-Trp-NH2 ({3‑Pyridinepropionyl}-[dW]NTF[azaGly]L[Arg(Me)]W-NH2) [Compound No. 670]
Testosterone level in Blood [1]: 2% | Specific Act. (EC50/MS10 EC50) [2]: 0.9

6-Aminocaproyl-D-Trp-Asn-Thr-Phe-AzaGly-Leu-Arg(Me)-Trp-NH2 ({6‑Aminocaproyl}-[dW]NTF[azaGly]L[Arg(Me)]W-NH2) [Compound No. 674]
Testosterone level in Blood [1]: 2% | Specific Act. (EC50/MS10 EC50) [2]: 2

CNC(=N)NCCC[C@H](NC(=O)[C@H](CC(C)C)NC(=O)CNC(=O)[C@H](Cc1ccccc1)NC(=O)[C@H](CO)NC(=O)[C@H](CC(N)=O)NC(=O)[C@H](Cc1c[nH]c2ccccc12)NC(=O)[C@H](N)Cc1ccc(O)cc1)C(=O)N[C@@H](Cc1ccccc1)C(N)=O [Compound No. 217] (H-[dY]WNSFGL[Arg(Me)]F-NH2)
Specific Act. (intracellular Ca ion level-increasing activity, specific activity to Metastin (1-54)) [3]: 20 | Specific Act. (EC50/MS10 EC50) [2]: 3.1

CNC(=N)NCCC[C@H](NC(=O)[C@H](CC(C)C)NC(=O)NNC(=O)[C@H](Cc1ccccc1)NC(=O)[C@H](CO)NC(=O)[C@H](CC(N)=O)NC(=O)[C@H](Cc1c[nH]c2ccccc12)NC(=O)[C@H](N)Cc1ccc(O)cc1)C(=O)N[C@@H](Cc1ccccc1)C(N)=O [Compound No. 222, D-Tyr-Trp-Asn-Ser-Phe-AzaGly-Leu-Arg(Me)-Phe-NH2] (H-[dY]WNSF[azaGly]L[Arg(Me)]F-NH2)
Specific Act. (intracellular Ca ion level-increasing activity, specific activity to Metastin (1-54)) [3]: 10 | Specific Act. (EC50/MS10 EC50) [2]: 2.7

CNC(=N)NCCC[C@H](NC(=O)[C@H](CC(C)C)NC(=O)NNC(=O)[C@H](Cc1ccccc1)NC(=O)[C@H](CO)NC(=O)[C@H](CC(N)=O)NC(=O)[C@H](Cc1c[nH]c2ccccc12)NC(=O)[C@H](CC(N)=O)NC(=O)[C@H](N)Cc1ccc(O)cc1)C(=O)N[C@@H](Cc1ccccc1)C(N)=O [Compound No. 232, D-Tyr-Asn-Trp-Asn-Ser-Phe-AzaGly-Leu-Arg(Me)-Phe-NH2]
Specific Act. (intracellular Ca ion level-increasing activity, specific activity to Metastin (1-54)) [3]: 3 | Specific Act. (EC50/MS10 EC50) [2]: 3.9

CNC(=N)NCCC[C@H](NC(=O)[C@H](CC(C)C)NC(=O)NNC(=O)[C@H](Cc1ccccc1)NC(=O)[C@H](CO)NC(=O)[C@H](CC(N)=O)NC(=O)[C@@H](NC(=O)[C@H](N)Cc1ccc(O)cc1)[C@@H](C)O)C(=O)N[C@@H](Cc1ccccc1)C(N)=O [Compound No. 241, D-Tyr-Thr-Asn-Ser-Phe-AzaGly-Leu-Arg(Me)-Phe-NH2] (H-[dY]TNSF[azaGly]L[Arg(Me)]F-NH2)
Specific Act. (intracellular Ca ion level-increasing activity, specific activity to Metastin (1-54)) [3]: 1 | Specific Act. (EC50/MS10 EC50) [2]: 5.3

CNC(=N)NCCC[C@H](NC(=O)[C@H](CC(C)C)NC(=O)NNC(=O)[C@H](Cc1ccccc1)NC(=O)[C@H](CO)NC(=O)[C@H](CC(N)=O)NC(=O)[C@@H](Cc1c[nH]c2ccccc12)NC(=O)[C@H](N)Cc1ccc(O)cc1)C(=O)N[C@@H](Cc1ccccc1)C(N)=O [Compound No. 242, D-Tyr-D-Trp-Asn-Ser-Phe-AzaGly-Leu-Arg(Me)-Phe-NH2] (H-[dY][dW]NSF[azaGly]L[Arg(Me)]F-NH2)
Specific Act. (intracellular Ca ion level-increasing activity, specific activity to Metastin (1-54)) [3]: 2 | Specific Act. (EC50/MS10 EC50) [2]: 1.4

Ac-D-Trp-Asn-Thr-Phe-AzaGly-Leu-Arg(Me)-Trp-NH2 (Ac-[dW]NTF[azaGly]L[Arg(Me)]W-NH2; SMILES CNC(=N)NCCC[C@H](NC(=O)[C@H](CC(C)C)NC(=O)NNC(=O)[C@H](Cc1ccccc1)NC(=O)[C@@H](NC(=O)[C@H](CC(N)=O)NC(=O)[C@@H](Cc1c[nH]c2ccccc12)NC(C)=O)[C@@H](C)O)C(=O)N[C@@H](Cc1c[nH]c2ccccc12)C(N)=O) [Compound No. 666]
Testosterone level in Blood [1]: 2% | Specific Act. (EC50/MS10 EC50) [2]: 1.1

Ac-D-Trp-D-Trp-Asn-Thr-Phe-AzaGly-Leu-Arg(Me)-Trp-NH2 (Ac-[dW][dW]NTF[azaGly]L[Arg(Me)]W-NH2; SMILES CNC(=N)NCCC[C@H](NC(=O)[C@H](CC(C)C)NC(=O)NNC(=O)[C@H](Cc1ccccc1)NC(=O)[C@@H](NC(=O)[C@H](CC(N)=O)NC(=O)[C@@H](Cc1c[nH]c2ccccc12)NC(=O)[C@@H](Cc1c[nH]c2ccccc12)NC(C)=O)[C@@H](C)O)C(=O)N[C@@H](Cc1c[nH]c2ccccc12)C(N)=O) [Compound No. 663]
Testosterone level in Blood [1]: 2% | Specific Act. (EC50/MS10 EC50) [2]: 0.8

Ac-D-Tyr-D-Pya(2)-Asn-Thr-Phe-AzaGly-Leu-Arg(Me)-Trp-NH2 [Compound No. 658]
Testosterone level in Blood [1]: 2% | Specific Act. (EC50/MS10 EC50) [2]: 0.4

Ac-D-Tyr-D-Pya(3)-Asn-Thr-Phe-AzaGly-Leu-Arg(Me)-Trp-NH2 [Compound No. 660]
Testosterone level in Blood [1]: 2% | Specific Act. (EC50/MS10 EC50) [2]: 1.1

Ac-D-Tyr-D-Pya(4)-Asn-Thr-Phe(4F)-AzaGly-Leu-Arg(Me)-Trp-NH2 [Compound No. 638]
Testosterone level in Blood [1]: 2% | Specific Act. (EC50/MS10 EC50) [2]: 1.7

Ac-D-Tyr-D-Trp-Asn-Thr-Phe-AzaGly-Leu-Arg(Me2)sym-Trp-NH2 [Compound No. 608]
Testosterone level in Blood [1]: 2% | Specific Act. (EC50/MS10 EC50) [2]: 2.2

Ac-D-Tyr-D-Trp-Asn-Thr-Phe-AzaGly-Nva-Arg(Me)-Trp-NH2 (Ac-[dY][dW]NTF[azaGly][Nva][Arg(Me)]W-NH2; SMILES CCC[C@H](NC(=O)NNC(=O)[C@H](Cc1ccccc1)NC(=O)[C@@H](NC(=O)[C@H](CC(N)=O)NC(=O)[C@@H](Cc1c[nH]c2ccccc12)NC(=O)[C@@H](Cc1ccc(O)cc1)NC(C)=O)[C@@H](C)O)C(=O)N[C@@H](CCCNC(=N)NC)C(=O)N[C@@H](Cc1c[nH]c2ccccc12)C(N)=O) [Compound No. 677]
Testosterone level in Blood [1]: 2% | Specific Act. (EC50/MS10 EC50) [2]: 0.3

Ac-D-Tyr-D-Trp-Asn-Thr-Pya(4)-AzaGly-Leu-Arg(Me)-Trp-NH2 [Compound No. 635]
Testosterone level in Blood [1]: 2% | Specific Act. (EC50/MS10 EC50) [2]: 1.4

Ac-D-Tyr-D-Tyr-D-Trp-Asn-Thr-Phe-AzaGly-Leu-Arg(Me)-Trp-NH2 (Ac-[dY][dY][dW]NTF[azaGly]L[Arg(Me)]W-NH2; SMILES CNC(=N)NCCC[C@H](NC(=O)[C@H](CC(C)C)NC(=O)NNC(=O)[C@H](Cc1ccccc1)NC(=O)[C@@H](NC(=O)[C@H](CC(N)=O)NC(=O)[C@@H](Cc1c[nH]c2ccccc12)NC(=O)[C@@H](Cc1ccc(O)cc1)NC(=O)[C@@H](Cc1ccc(O)cc1)NC(C)=O)[C@@H](C)O)C(=O)N[C@@H](Cc1c[nH]c2ccccc12)C(N)=O) [Compound No. 651]
Testosterone level in Blood [1]: 2% | Specific Act. (EC50/MS10 EC50) [2]: 0.7

Ac-D-Tyr-NMeTrp-Asn-Thr-Phe-AzaGly-Leu-Arg(Me)-Trp-NH2 (Ac-[dY][NMeW]NTF[azaGly]L[Arg(Me)]W-NH2; SMILES CNC(=N)NCCC[C@H](NC(=O)[C@H](CC(C)C)NC(=O)NNC(=O)[C@H](Cc1ccccc1)NC(=O)[C@@H](NC(=O)[C@H](CC(N)=O)NC(=O)[C@H](Cc1c[nH]c2ccccc12)N(C)C(=O)[C@@H](Cc1ccc(O)cc1)NC(C)=O)[C@@H](C)O)C(=O)N[C@@H](Cc1c[nH]c2ccccc12)C(N)=O) [Compound No. 672]
Testosterone level in Blood [1]: 2% | Specific Act. (EC50/MS10 EC50) [2]: 2.1

Ac-D-Tyr-Pro-Asn-Thr-Phe-AzaGly-Leu-Arg(Me)-Trp-NH2 (Ac-[dY]PNTF[azaGly]L[Arg(Me)]W-NH2; SMILES CNC(=N)NCCC[C@H](NC(=O)[C@H](CC(C)C)NC(=O)NNC(=O)[C@H](Cc1ccccc1)NC(=O)[C@@H](NC(=O)[C@H](CC(N)=O)NC(=O)[C@@H]1CCCN1C(=O)[C@@H](Cc1ccc(O)cc1)NC(C)=O)[C@@H](C)O)C(=O)N[C@@H](Cc1c[nH]c2ccccc12)C(N)=O) [Compound No. 657]
Testosterone level in Blood [1]: 2% | Specific Act. (EC50/MS10 EC50) [2]: 1.1

Ac-G[dY][dW]NTF[azaGly]L[Arg(Me)]W-NH2 [Compound No. 649]
Testosterone level in Blood [1]: 2% | Specific Act. (EC50/MS10 EC50) [2]: 1

Ac-Tyr-D-Tyr-D-Trp-Asn-Thr-Phe-AzaGly-Leu-Arg(Me)-Trp-NH2 (Ac-Y[dY][dW]NTF[azaGly]L[Arg(Me)]W-NH2; SMILES CNC(=N)NCCC[C@H](NC(=O)[C@H](CC(C)C)NC(=O)NNC(=O)[C@H](Cc1ccccc1)NC(=O)[C@@H](NC(=O)[C@H](CC(N)=O)NC(=O)[C@@H](Cc1c[nH]c2ccccc12)NC(=O)[C@@H](Cc1ccc(O)cc1)NC(=O)[C@H](Cc1ccc(O)cc1)NC(C)=O)[C@@H](C)O)C(=O)N[C@@H](Cc1c[nH]c2ccccc12)C(N)=O) [Compound No. 676]
Testosterone level in Blood [1]: 2% | Specific Act. (EC50/MS10 EC50) [2]: 1.4

H-YNWNSFGLRY-NH2 [Compound No. 109]
Specific Act. (intracellular Ca ion level-increasing activity, specific activity to Metastin (1-54)) [3]: 20 | Specific Act. (EC50/MS10 EC50) [2]: 2.6
